# Like-named read-outs stand apart in the source and are kept apart here.
# Legend:
# RAW264.7 cells = test: MTT cell viability assay on RAW264.7 macrophages; type: cell-based, murine; details: Mus musculus, RAW264.7, 24 h, read-out: IC50 (RAW264.7 cells viability)
# DPP-4 enzyme = DPP-4 enzyme (Homo sapiens, UniProt P27487); test: biochemical
# [1] = Antioxidant activity, DPPH scavenging method; details: read-out: IC50 (DPPH scavenging); DPPH 100 μM, 30 min, mean ± SD
# type 2 diabetic rats = test: In vivo antidiabetic effect of a single dose on OGTT in type 2 diabetic; parameters: species or system male Wistar albino rats; details: oral doses equivalent to 10 mg/kg, NA: Not active
# normal rats = test: In vivo screening of antihyperglycemic effect, oral tolerance test; parameters: species or system male Wistar albino rats; details: OGTT, oral administration, NA: Not active
# IL-6 = test: ELISA of IL-6 release by LPS-stimulated RAW264.7 macrophages; type: cell-based, murine; details: LPS (1 μg/mL) stimulated RAW264.7, compound at ¼ IC50, ELISA, compared to LPS
# CRP = test: ELISA of CRP release by LPS-stimulated RAW264.7 macrophages; type: cell-based, murine; details: LPS (1 μg/mL) stimulated RAW264.7, compound at ¼ IC50, ELISA, compared to LPS
# DPP-4 enzyme, sequence (P27487 whole entry): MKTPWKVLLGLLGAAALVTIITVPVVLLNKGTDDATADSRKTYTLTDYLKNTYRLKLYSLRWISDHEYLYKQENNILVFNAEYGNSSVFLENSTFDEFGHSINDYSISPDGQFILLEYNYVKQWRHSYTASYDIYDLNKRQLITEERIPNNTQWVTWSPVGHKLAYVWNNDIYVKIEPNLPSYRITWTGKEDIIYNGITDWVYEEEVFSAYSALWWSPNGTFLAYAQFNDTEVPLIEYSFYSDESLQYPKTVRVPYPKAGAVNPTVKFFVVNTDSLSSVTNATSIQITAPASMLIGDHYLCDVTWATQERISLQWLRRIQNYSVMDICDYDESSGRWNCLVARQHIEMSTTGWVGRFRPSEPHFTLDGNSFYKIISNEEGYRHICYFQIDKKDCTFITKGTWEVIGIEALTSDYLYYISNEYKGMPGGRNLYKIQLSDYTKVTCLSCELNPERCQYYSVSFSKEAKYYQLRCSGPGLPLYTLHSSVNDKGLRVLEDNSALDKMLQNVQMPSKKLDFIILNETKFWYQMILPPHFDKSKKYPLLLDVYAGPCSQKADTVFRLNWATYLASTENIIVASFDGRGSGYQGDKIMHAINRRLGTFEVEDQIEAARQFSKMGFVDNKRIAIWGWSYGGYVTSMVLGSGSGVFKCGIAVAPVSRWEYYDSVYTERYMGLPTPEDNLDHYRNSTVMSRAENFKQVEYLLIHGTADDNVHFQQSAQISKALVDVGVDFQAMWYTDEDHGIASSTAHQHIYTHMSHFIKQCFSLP
smiles,measurement,setting,value
"Cc1ccc(NC(=S)NS(=O)(=O)C2=CNC3SC(=O)CN3C2=O)cc1 (stereo not shown) [Compound 4b, 3-(4-Methylphenyl)-1-[(2,5-dioxo-8,8a-dihydro-3H-thiazolo[3,2-a]pyrimidin-6-yl)sulfonyl]-thiourea]",IC50,RAW264.7 cells,241000 ± 69200 nM
same,IC50,DPP-4 enzyme,63 ± 3 nM
same,IC50,[1],65900 ± 3400 nM
same,% Reduction in BGL compared to control,type 2 diabetic rats,36.59%
"O=C(Nc1ccccc1)NS(=O)(=O)C1=CNC2SC(=O)CN2C1=O (stereo not shown) [Compound 4c, 1-[(2,5-Dioxo-8,8a-dihydro-3H-thiazolo[3,2-a]pyrimidin-6-yl)sulfonyl]-3-phenyl-urea]",IC50,DPP-4 enzyme,418 ± 20 nM
"Cc1ccc(NC(=O)NS(=O)(=O)C2=CNC3SC(=O)CN3C2=O)cc1 (stereo not shown) [Compound 4d, 3-(4-Methylphenyl)-1-[(2,5-dioxo-8,8a-dihydro-3H-thiazolo[3,2-a]pyrimidin-6-yl)sulfonyl]-urea]",IC50,DPP-4 enzyme,1320 ± 65 nM
"O=C(O)CSc1ncc(S(=O)(=O)NC(=S)Nc2ccccc2)c(=O)[nH]1 [Compound 5a, 2-[[6-Oxo-5-(phenylcarbamothioylsulfamoyl)-1H-pyrimidin-2-yl]sulfanyl]acetic acid]",IC50,DPP-4 enzyme,577 ± 28 nM
"Cc1ccc(NC(=S)NS(=O)(=O)c2cnc(SCC(=O)O)[nH]c2=O)cc1 [Compound 5b, 2-[[5-(4-Methylphenylcarbamothioylsulfamoyl)-6-oxo-1H-pyrimidin-2-yl]sulfanyl]acetic acid]",IC50,DPP-4 enzyme,634 ± 31 nM
same,% Reduction in BGL compared to control,normal rats,15.89%
"O=C(O)CSc1ncc(S(=O)(=O)NC(=O)Nc2ccccc2)c(=O)[nH]1 [Compound 5c, 2-[[6-Oxo-5-(phenylcarbamoylsulfamoyl)-1H-pyrimidin-2-yl]sulfanyl]acetic acid]",IC50,DPP-4 enzyme,290 ± 18 nM
"NNc1ncc(S(=O)(=O)NC(=S)Nc2ccccc2)c(=O)[nH]1 [Compound 6a, 1-[(2-Hydrazino-6-oxo-1H-pyrimidin-5-yl)sulfonyl]-3-phenyl-thiourea]",IC50,RAW264.7 cells,175000 ± 24700 nM
same,decrease in IL-6 levels,IL-6,about 85.9%
same,reduction of the release of CRP,CRP,about 75.5%
same,IC50,DPP-4 enzyme,47 ± 2 nM
same,IC50,[1],139000 ± 7100 nM
same,% Reduction in BGL compared to control,type 2 diabetic rats,23.24%
same,% Reduction in BGL compared to control,normal rats,17.70%
"Cc1ccc(NC(=S)NS(=O)(=O)c2cnc(NN)[nH]c2=O)cc1 [Compound 6b, 1-[(2-Hydrazino-6-oxo-1H-pyrimidin-5-yl)sulfonyl]-3-(4-methylphenyl)-thiourea]",IC50,RAW264.7 cells,189000 ± 26000 nM
same,IC50,DPP-4 enzyme,71 ± 4 nM
same,IC50,[1],123000 ± 6300 nM
same,% Reduction in BGL compared to control,type 2 diabetic rats,41.00%
"NNc1ncc(S(=O)(=O)NC(=O)Nc2ccccc2)c(=O)[nH]1 [Compound 6c, 1-[(2-Hydrazino-6-oxo-1H-pyrimidin-5-yl)sulfonyl]-3-phenyl-urea]",IC50,DPP-4 enzyme,264 ± 13 nM
same,% Reduction in BGL compared to control,normal rats,17.36%
"O=c1c(S(=O)(=O)NC(=S)Nc2ccccc2)cnc2[nH]ncn12 [Compound 7a, 1-[(5-oxo-1H-[1], [2], [4]triazolo[4,3-a]pyrimidin-6-yl)sulfonyl]-3-phenyl-thiourea]",IC50,"DPP-4 enzyme; read-out: DPP-4 IC50, in vitro, 0.01 to 10 µM, mean ± SD",153 ± 8 nM
same,% Reduction in BGL compared to control,normal rats,17.55%
"O=c1[nH]c(N/N=C/c2ccccc2)ncc1S(=O)(=O)NC(=S)Nc1ccccc1 [Compound 8a, 1-[[2-[(2E)-2-benzylidenehydrazino]-6-oxo-1H-pyrimidin-5-yl]sulfonyl]-3-phenyl-thiourea]",IC50,DPP-4 enzyme,104 ± 5 nM
same,% Reduction in BGL compared to control,normal rats,16.88%
"Cc1ccc(NC(=S)NS(=O)(=O)c2cnc(N/N=C/c3ccccc3)[nH]c2=O)cc1 [Compound 8b, 1-[[2-[(2E)-2-benzylidenehydrazino]-6-oxo-1H-pyrimidin-5-yl]sulfonyl]-3-(4-methylphenyl)-thiourea]",IC50,RAW264.7 cells,155000 ± 24200 nM
same,decrease in IL-6 levels,IL-6,~80.2%
same,reduction of the release of CRP,CRP,~82.6%
same,IC50,DPP-4 enzyme,75 ± 3 nM
same,IC50,[1],60800 ± 3100 nM
same,% Reduction in BGL compared to control,type 2 diabetic rats,23.94%
"O=C(Nc1ccccc1)NS(=O)(=O)c1cnc(N/N=C/c2ccccc2)[nH]c1=O [Compound 8c, 1-[[2-[(2E)-2-benzylidenehydrazino]-6-oxo-1H-pyrimidin-5-yl]sulfonyl]-3-phenyl-urea]",IC50,DPP-4 enzyme,468 ± 23 nM
"Cc1ccc(S(=O)(=O)NC(=O)NN2CC3CCCC3C2)cc1 (stereo not shown) [Diamicron, reference compound]",% Reduction in BGL compared to control,normal rats,15.86%
"CC#CCn1c(N2CCC[C@@H](N)C2)nc2c1c(=O)n(Cc1nc(C)c3ccccc3n1)c(=O)n2C [Linagliptin, linagliptin, reference compound]",% Reduction in BGL compared to control,type 2 diabetic rats,36.42%
"Cc1c(C)c2c(c(C)c1O)CCC(C)(C(=O)O)O2 (stereo not shown) [Trolox, reference compound]",IC50,[1],55200 ± 2800 nM

# Reference: PMC9364673 (Bioorganic Chemistry, 2022)
